Measured values as given in US11944635B1, “Compositions and methods for treating epilepsy” (priority 2023, dated 2024).
Entries after “also recorded” stand apart in the source; their conditions may differ.

Assay: Hepatic markers (ALT, AST, ALP, GGT, total bilirubin) in the 5-week human study
Assay type: in vivo
Details: 5 weeks, versus placebo
Procedure: Each patient visited the laboratory 6 times in total. During each visit, a sample of venous blood was taken from forearm following an overnight fast and sample of urine was obtained. All blood and urine samples were analyzed in the same certified institutional biochemical laboratory, using the standard operating procedures.
Hepatic (ALT, AST, ALP, GGT, and total bilirubin) markers were also measured.
Moreover, these changes we <1 standard deviation and therefore viewed as not clinically meaningful. As noted earlier, >3 SD over normative values were classified as an AE.

For C=C(C)[C@@H]1CCC(C)=C[C@H]1c1c(O)cc(CCCCC)cc1O [CBD, 2-[(1R,6R)-6-Isopropenyl-3-methylcyclohex-2-en-1-yl]-5-pentylbenzene-1,3-diol], which “plasma alanine transaminase (ALT)” value is on record?
Its value is “remained effectively unchanged”.

And the “plasma alkaline phosphatase (ALP)” value?
Its value is “remained effectively unchanged”.

And the plasma total bilirubin?
The plasma total bilirubin was “remained effectively unchanged”.

What about the “plasma gamma-glutamyl transferase (GGT)” value (main effect of dose P=0.038) of the same molecule?
The value was “slightly higher; also recorded: remained effectively unchanged”.

And the “plasma aspartate transaminase (AST)” value (main effect of dose P=0.047)?
The value was “higher in the placebo condition; also recorded: remained effectively unchanged”.
